Reference: US10550143B2, “C,O-spiro aryl glycoside compounds, preparation therefor and use thereof” (SHANGHAI INSTITUTE OF MATERIA MEDICA, CHINESE ACADEMY OF …, priority 2015, dated 2020)

Biological target: T1, human sodium-glucose cotransporter 2 (SGLT2) (Homo sapiens, UniProt P31639)
T1 construct: expressed in transfected cells; host or cells: NIH3T3 (mouse fibroblast) cells expressing hSGLT2
T1 sequence (P31639 1-672): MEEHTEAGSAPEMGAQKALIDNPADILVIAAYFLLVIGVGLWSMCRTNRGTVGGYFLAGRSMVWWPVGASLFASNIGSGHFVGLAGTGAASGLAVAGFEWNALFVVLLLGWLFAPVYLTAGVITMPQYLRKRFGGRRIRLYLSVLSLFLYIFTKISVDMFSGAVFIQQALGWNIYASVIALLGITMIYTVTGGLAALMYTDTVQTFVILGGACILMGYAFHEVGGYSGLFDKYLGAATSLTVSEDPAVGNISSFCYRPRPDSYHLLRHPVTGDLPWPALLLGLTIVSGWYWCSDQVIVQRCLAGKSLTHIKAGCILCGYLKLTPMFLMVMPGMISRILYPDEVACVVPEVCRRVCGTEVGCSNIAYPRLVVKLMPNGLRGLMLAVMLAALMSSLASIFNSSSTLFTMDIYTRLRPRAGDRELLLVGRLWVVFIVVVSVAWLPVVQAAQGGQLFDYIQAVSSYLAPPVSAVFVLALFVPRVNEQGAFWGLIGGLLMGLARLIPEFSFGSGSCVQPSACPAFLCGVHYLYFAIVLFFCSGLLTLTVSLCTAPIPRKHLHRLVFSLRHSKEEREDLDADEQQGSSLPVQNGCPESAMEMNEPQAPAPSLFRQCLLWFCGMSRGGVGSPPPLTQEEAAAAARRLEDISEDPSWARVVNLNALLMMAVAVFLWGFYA
Experiment: In vitro SGLT2 inhibition, methyl-α-D-[U-14C]glucopyranoside uptake in NIH3T3-hSGLT2 cells
Type: cell-based
Conditions: for inhibition at 0.01 µM: SGLT2, 10 nM, read-out: % Inhibition rate ± SD 10 nM; for inhibition at 0.1 µM: SGLT2, 100 nM, read-out: % Inhibition rate ± SD 100 nM
Description: Inhibition of the compounds of formula I against human sodium-glucose cotransporter 2 (SGLT2) was determined experimentally and the experimental procedures were carried out as reference^1.
Methyl-α-D-[U-^14C] glucopyranoside (Perkin Elmer) Dimethylsulfoxide (Genebase, Prod No: 0231)
(1) Primary screening of hSGLT2 are conducted with two concentrations, 100 nM and 10 nM;
SGLT2 transports D-glucose at 1:1 sodium-glucose ratio, glucose is replaced by the non-metabolic and isotope labeled methyl-aD-[U-^14C] glucopyranoside and methyl-aD-glucopyranoside, and the amount of isotope transferred into the cells was determined.
1) 0.2% gelatin in a 96-well plate was put in a 37° C. incubator for further use;
2) NIH3T3-hSGLT2 cells were injected into 96-well plates, 40000/well, and 100 μL culture medium per well:
3) the fluid was changed in the next day, and sodium butyrate was added into medium at a final concentration of 2 mM;
4) wash the cells with 100 μL of KRH—Na^+ for 3 times and incubate cells with 50 μL for 30 minutes. Cells were changed to 50 μL of compound in KRH—Na^+, uptake buffer (KRH—Na^+ and methyl-α-D-[U-^14C]glucopyranoside and ⅙ mM methyl-α-D-glucopyranoside at 10 μL per well) was added; KRH-acetylcholine solution was used as background control instead of KRH-Na^+
5) washed with 100 μL PBS for 3 times, dried, 50 μL lysate and 150 μL scintillation fluid were added, the membrane was covered and flattened, shaken on a shaker to mix thoroughly, centrifuged at 1500 rpm at 4° C. for 3 min, taken out and read;
6) the results were analyses.
The inhibition rate (% Inhibiton) of each sample at each concentration was calculated by dividing the value of the compound well value minus the background value by the value of the DMSO control well value minus the background value.
IC50 is calculated as follows: […]
The y value is the activity or inhibition percent, the x value is the concentration of the corresponding compound, top (the maximum y value of the curve), bottom (the minimum y value of the curve).

For Cc1ccc(Cc2ccc3c(c2)[C@]2(OC3)O[C@H](C)[C@@H](O)[C@H](O)[C@H]2O)cc1 [Example A1, (1S,3′R,4′S,5′S,6′R)-6′-methyl-6-(4-methylbenzyl)-3′,4′,5′,6′-tetrahydro-3H-spiro[isobenzofuran-1,2′-pyran]-3′,4′,5′-triol], the inhibition at 0.01 µM was 21.2 ± 14.4% and the inhibition at 0.1 µM was 26.9 ± 9.1%.

For CCCc1ccc(Cc2ccc3c(c2)[C@]2(OC3)O[C@H](C)[C@@H](O)[C@H](O)[C@H]2O)cc1 [Example A3, (1S,3′R,4′S,5′S,6′R)-6′-methyl-6-(4-propylbenzyl)-3′,4′,5′,6′-tetrahydro-3H-spiro[isobenzofuran-1,2′-pyran]-3′,4′,5′-triol], the inhibition at 0.01 µM was 23.1 ± 18.5% and the inhibition at 0.1 µM was 31 ± 9.7%.

In the case of CC(C)c1ccc(Cc2ccc3c(c2)[C@]2(OC3)O[C@H](C)[C@@H](O)[C@H](O)[C@H]2O)cc1 [Example A4, (1S,3′R,4′S,5′S,6′R)-6′-methyl-6-(4-isopropylbenzyl)-3′,4′,5′,6′-tetrahydro-3H-spiro[isobenzofuran-1,2′-pyran]-3′,4′,5′-triol], the inhibition at 0.01 µM is reported as 34.1 ± 23.6% and the inhibition at 0.1 µM is reported as 42.2 ± 3.5%.

With COc1ccc(Cc2ccc3c(c2)[C@]2(OC3)O[C@H](C)[C@@H](O)[C@H](O)[C@H]2O)cc1 [Example A5, (1S,3′R,4′S,5′S,6′R)-6′-methyl-6-(4-methoxybenzyl)-3′,4′,5′,6′-tetrahydro-3H-spiro[isobenzofuran-1,2′-pyran]-3′,4′,5′-triol] the inhibition at 0.01 µM was 26 ± 14% and the inhibition at 0.1 µM was 28.9 ± 7.2%.

Work on CCOc1ccc(Cc2ccc3c(c2)[C@]2(OC3)O[C@H](C)[C@@H](O)[C@H](O)[C@H]2O)cc1 [Example A6, (1S,3′R,4′S,5′S,6′R)-6′-methyl-6-(4-ethyoxylbenzyl)-3′,4′,5′,6′-tetrahydro-3H-spiro[isobenzofuran-1,2′-pyran]-3′,4′,5′-triol] yielded an inhibition at 0.01 µM of 27 ± 15.7% and an inhibition at 0.1 µM of 27.6 ± 3.1%.

In the case of Cc1ccc(Cc2ccc3c(c2)[C@]2(OC3)O[C@H](C)[C@@H](O)[C@H](O)[C@H]2O)s1 [Example A7, (1S,3′R,4′S,5′S,6′R)-6′-methyl-6-((5-methylthienyl)-2-methyl)-3′,4′,5′,6′-tetrahydro-3H-spiro [isobenzofuran-1,2′-pyran]-3′,4′,5′-triol], the inhibition at 0.01 µM is reported as 15.7 ± 25.2% and the inhibition at 0.1 µM is reported as 27.9 ± 1.9%.

Work on CCc1ccc(Cc2ccc3c(c2)[C@]2(OC3)O[C@H](C)[C@@H](O)[C@H](O)[C@H]2O)s1 [Example A8, (1S,3′R,4′S,5′S,6′R)-6′-methyl-6-((5-ethylthienyl)-2-methyl)-3′,4′,5′,6′-tetrahydro-3H-spiro [isobenzofuran-1,2′-pyran]-3′,4′,5′-triol] yielded an inhibition at 0.01 µM of 30.4 ± 4.8%, an inhibition at 0.1 µM of 59.1 ± 5.3% and an IC50 (read-out: IC50 ± SD SGLT2) of 285 ± 117 nM.

For CCCc1ccc(Cc2ccc3c(c2)[C@]2(OC3)O[C@H](C)[C@@H](O)[C@H](O)[C@H]2O)s1 [Example A9, (1S,3′R,4′S,5′S,6′R)-6′-methyl-6-((5-propylthienyl)-2-methyl)-3′,4′,5′,6′-tetrahydro-3H-spiro [isobenzofuran-1,2′-pyran]-3′,4′,5′-triol], the inhibition at 0.01 µM was 34.7 ± 24% and the inhibition at 0.1 µM was 52.8 ± 15.5%.

C[C@H]1O[C@]2(OCc3ccc(Cc4ccc(Cl)s4)cc32)[C@H](O)[C@@H](O)[C@@H]1O [Example A10, (1S,3′R,4′S,5′S,6′R)-6′-methyl-6-((5-chlorothienyl)-2-methyl)-3′,4′,5′,6′-tetrahydro-3H-spiro [isobenzofuran-1,2′-pyran]-3′,4′,5′-triol] was tested, and the inhibition at 0.01 µM was 28.1 ± 25.8% and the inhibition at 0.1 µM was 45.8 ± 10.2%.

Work on C[C@H]1O[C@]2(OCc3ccc(Cc4ccc(-c5ccc(F)cc5)s4)cc32)[C@H](O)[C@@H](O)[C@@H]1O [Example A11, (1S,3′R,4′S,5′S,6′R)-6′-methyl-6-((5-(4-fluorophenyl)thienyl)-2-methyl)-3′,4′,5′,6′-tetrahydro-3H-spiro[isobenzofuran-1,2′-pyran]-3′,4′,5′-triol] yielded an inhibition at 0.01 µM of 29.4 ± 11.1% and an inhibition at 0.1 µM of 31.4 ± 8.1%.

C[C@H]1O[C@]2(OCc3ccc(Cc4ccc(-c5ccccc5)s4)cc32)[C@H](O)[C@@H](O)[C@@H]1O [Example A12, (1S,3′R,4′S,5′S,6′R)-6′-methyl-6-((5-phenylthienyl)-2-methyl)-3′,4′,5′,6′-tetrahydro-3H-spiro [isobenzofuran-1,2′-pyran]-3′,4′,5′-triol] gave an inhibition at 0.01 µM of 20.4 ± 28.4% and an inhibition at 0.1 µM of 49.1 ± 20%.

Work on C[C@H]1O[C@]2(OCc3ccc(Cc4ccc(-c5ccccn5)s4)cc32)[C@H](O)[C@@H](O)[C@@H]1O [Example A13, (1S,3′R,4′S,5′S,6′R)-6′-methyl-6-((5-(2-pyridyl)thienyl)-2-methyl)-3′,4′,5′,6′-tetrahydro-3H-spiro[isobenzofuran-1,2′-pyran]-3′,4′,5′-triol] yielded an inhibition at 0.01 µM of 31 ± 30.5% and an inhibition at 0.1 µM of 46.9 ± 8.6%.

In the case of C[C@H]1O[C@]2(OCc3ccc(Cc4ccc5ccccc5c4)cc32)[C@H](O)[C@@H](O)[C@@H]1O [Example A14, (1S,3′R,4′S,5′S,6′R)-6′-methyl-6-(naphthyl-2-methyl)-3′,4′,5′,6′-tetrahydro-3H-spiro [isobenzofuran-1,2′-pyran]-3′,4′,5′-triol], the inhibition at 0.01 µM is reported as 25.8 ± 15% and the inhibition at 0.1 µM is reported as 55.8 ± 13.2%.

C[C@H]1O[C@]2(OCc3ccc(Cc4cc5ccccc5s4)cc32)[C@H](O)[C@@H](O)[C@@H]1O [Example A15, (1S,3′R,4′S,5′S,6′R)-6′-methyl-6-(benzo[b]thiophene-2-methyl)-3′,4′,5′,6′-tetrahydro-3H-spiro[isobenzofuran-1,2′-pyran]-3′,4′,5′-triol] was tested, and the inhibition at 0.01 µM was 46.9 ± 4% and the inhibition at 0.1 µM was 50.8 ± 4.4%.

With C[C@H]1O[C@]2(OCc3ccc(Cc4cc5ccccc5o4)cc32)[C@H](O)[C@@H](O)[C@@H]1O [Example A16, (1S,3′R,4′S,5′S,6′R)-6′-methyl-6-(benzo[b]furan-2-methyl)-3′,4′,5′,6′-tetrahydro-3H-spiro [isobenzofuran-1,2′-pyran]-3′,4′,5′-triol] the inhibition at 0.01 µM was 27.5 ± 19.6% and the inhibition at 0.1 µM was 39 ± 16.1%.

COc1ccc(Cc2cc3c(cc2Cl)CO[C@]32O[C@H](C)[C@@H](O)[C@H](O)[C@H]2O)cc1 [Example A25, (1S,3′R,4′S,5′S,6′R)-6′-methyl-6-(4-methoxybenzyl)-5-chloro-3′,4′,5′,6′-tetrahydro-3H-spiro[isobenzofuran-1,2′-pyran]-3′,4′,5′-triol] gave an inhibition at 0.01 µM of 91.8 ± 5.1% and an inhibition at 0.1 µM of 101 ± 2.2%.

With C[C@H]1O[C@]2(OCc3cc(Cl)c(Cc4ccc(-c5ccccn5)s4)cc32)[C@H](O)[C@@H](O)[C@@H]1O [Example A33] the inhibition at 0.01 µM was 25 ± 9.3% and the inhibition at 0.1 µM was 20.7 ± 7.5%.

C[C@H]1O[C@]2(OCc3cc(F)c(Cc4ccc(-c5ccccn5)s4)cc32)[C@H](O)[C@@H](O)[C@@H]1O [Example A46, (1S,3′R,4′S,5′S,6′R)-6′-methyl-6-((5-(2-pyridyl)thienyl)-2-methyl)-5-fluoro-3′,4′,5′,6′-tetrahydro-3H-spiro[isobenzofuran-1,2′-pyran]-3′,4′,5′-triol] gave an inhibition at 0.01 µM of 16 ± 14.8% and an inhibition at 0.1 µM of 63.6 ± 2.4%.

C[C@H]1O[C@]2(OCc3cc(F)c(Cc4cc5ccccc5s4)cc32)[C@H](O)[C@@H](O)[C@@H]1O [Example A47, (1S,3′R,4′S,5′S,6′R)-6′-methyl-6-(benzo[b]thiophene-2-methyl)-5-fluoro-3,4′,5′,6′-tetrahydro-3H-spiro [isobenzofuran-1,2′-pyran]-3′,4′,5′-triol] was tested, and the inhibition at 0.01 µM was 19.4 ± 0.5% and the inhibition at 0.1 µM was 50.2 ± 10.8%.
